In ChEMBL document CHEMBL4340549, “Design, synthesis and biological evaluation of isochroman-4-one hybrids bearing piperazine moiety as antihypertensive agent candidates” (Bioorg Med Chem, 2019):

Key:
Thoracic aorta [1] = assay: Vasodilatory activity in Sprague-Dawley rat thoracic aorta assessed as inhibition of noradrenaline-induced contractions at 10 uM relative to untreated control; format: functional
[2] = molecular target: T1, Alpha-1D adrenergic receptor (Rattus norvegicus, UniProt P23944); assay: Antagonist activity at alpha-1D adrenergic receptor in SPF rat vas thoracic aorta assessed as inhibition of noradrenaline-induced contractions; settings: read-out: pA2 (converted)
T1 sequence (P23944 whole entry): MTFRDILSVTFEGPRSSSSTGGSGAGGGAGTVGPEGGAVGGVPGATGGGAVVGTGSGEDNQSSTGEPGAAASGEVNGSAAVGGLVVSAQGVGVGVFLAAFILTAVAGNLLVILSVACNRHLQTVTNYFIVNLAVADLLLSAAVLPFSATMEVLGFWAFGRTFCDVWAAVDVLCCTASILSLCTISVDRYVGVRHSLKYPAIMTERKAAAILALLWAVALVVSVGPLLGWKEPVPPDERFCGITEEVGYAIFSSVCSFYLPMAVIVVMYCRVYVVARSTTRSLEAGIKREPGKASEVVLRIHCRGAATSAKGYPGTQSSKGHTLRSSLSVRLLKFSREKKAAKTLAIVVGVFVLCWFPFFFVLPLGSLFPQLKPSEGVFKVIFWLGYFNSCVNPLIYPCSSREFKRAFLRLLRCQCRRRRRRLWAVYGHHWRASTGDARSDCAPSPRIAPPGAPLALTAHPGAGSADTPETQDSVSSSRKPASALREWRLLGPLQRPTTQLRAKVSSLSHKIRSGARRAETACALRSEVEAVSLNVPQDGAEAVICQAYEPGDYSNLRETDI

Thoracic aorta [3] = assay: Vasodilatory activity in Sprague-Dawley rat thoracic aorta assessed as inhibition of noradrenaline-induced contractions at 100 uM relative to untreated control; format: functional
Rattus norvegicus [4] = assay: Antihypertensive activity in spontaneously hypertensive rat assessed as diastolic arterial pressure at 80 mg/kg, po measured after 6 hrs by tail-cuff method (reference value: 137.54 +/- 9.2 mmHg); format: functional
Rattus norvegicus [5] = assay: Effect on heart rate in spontaneously hypertensive rat assessed as heart rate level at 80 mg/kg, po measured after 4 hrs by tail-cuff method (reference value: 410.80 +/- 17.4 bpm); format: ADME, organism-based; settings: in vivo
Rattus norvegicus [6] = assay: Antihypertensive activity in spontaneously hypertensive rat assessed as systolic arterial pressure at 80 mg/kg, po measured after 4 hrs by tail-cuff method (reference value: 178.66 +/- 17.18 mmHg); format: functional
Rattus norvegicus [7] = assay: Effect on heart rate in spontaneously hypertensive rat assessed as heart rate level at 80 mg/kg, po measured after 6 hrs by tail-cuff method (reference value: 411.12 +/- 19.1 bpm); format: ADME, organism-based; settings: in vivo
Rattus norvegicus [8] = assay: Antihypertensive activity in spontaneously hypertensive rat assessed as mean arterial pressure at 80 mg/kg, po measured after 4 hrs by tail-cuff method (reference value: 150.30 +/- 9.26 mmHg); format: functional
Rattus norvegicus [9] = assay: Antihypertensive activity in spontaneously hypertensive rat assessed as mean arterial pressure at 80 mg/kg, po measured after 0 hrs by tail-cuff method (reference value: 161.70 +/- 5.12 mmHg); format: functional
Rattus norvegicus [10] = assay: Antihypertensive activity in spontaneously hypertensive rat assessed as mean arterial pressure at 80 mg/kg, po measured after 6 hrs by tail-cuff method (reference value: 151.48 +/- 12.24 mmHg); format: functional
Rattus norvegicus [11] = assay: Antihypertensive activity in spontaneously hypertensive rat assessed as systolic arterial pressure at 80 mg/kg, po measured after 0 hrs by tail-cuff method (reference value: 186.10 +/- 4.55 mmHg); format: functional
Rattus norvegicus [12] = assay: Antihypertensive activity in spontaneously hypertensive rat assessed as mean arterial pressure at 80 mg/kg, po measured after 2 hrs by tail-cuff method (reference value: 163 +/- 8.1 mmHg); format: functional
Rattus norvegicus [13] = assay: Effect on heart rate in spontaneously hypertensive rat assessed as heart rate level at 80 mg/kg, po measured after 8 hrs by tail-cuff method (reference value: 412.77 +/- 11.3 bpm); format: ADME, organism-based; settings: in vivo
Rattus norvegicus [14] = assay: Antihypertensive activity in spontaneously hypertensive rat assessed as systolic arterial pressure at 80 mg/kg, po measured after 8 hrs by tail-cuff method (reference value: 179.42 +/- 13.70 mmHg); format: functional
Rattus norvegicus [15] = assay: Antihypertensive activity in spontaneously hypertensive rat assessed as diastolic arterial pressure at 80 mg/kg, po measured after 1 hr by tail-cuff method (reference value: 147.33 +/- 9.8 mmHg); format: functional
Rattus norvegicus [16] = assay: Antihypertensive activity in spontaneously hypertensive rat assessed as systolic arterial pressure at 80 mg/kg, po measured after 6 hrs by tail-cuff method (reference value: 179.36 +/- 18.33 mmHg); format: functional
Rattus norvegicus [17] = assay: Antihypertensive activity in spontaneously hypertensive rat assessed as systolic arterial pressure at 80 mg/kg, po measured after 1 hr by tail-cuff method (reference value: 185.35 +/- 10.30 mmHg); format: functional
Rattus norvegicus [18] = assay: Effect on heart rate in spontaneously hypertensive rat assessed as heart rate level at 80 mg/kg, po measured after 2 hrs by tail-cuff method (reference value: 413.2 +/- 15.2 bpm); format: ADME, organism-based; settings: in vivo
Rattus norvegicus [19] = assay: Antihypertensive activity in spontaneously hypertensive rat assessed as diastolic arterial pressure at 80 mg/kg, po measured after 8 hrs by tail-cuff method (reference value: 140.61 +/- 10.3 mmHg); format: functional
Rattus norvegicus [20] = assay: Antihypertensive activity in spontaneously hypertensive rat assessed as diastolic arterial pressure at 80 mg/kg, po measured after 2 hrs by tail-cuff method (reference value: 149.90 +/- 6 mmHg); format: functional
Rattus norvegicus [21] = assay: Antihypertensive activity in spontaneously hypertensive rat assessed as mean arterial pressure at 80 mg/kg, po measured after 1 hr by tail-cuff method (reference value: 160 +/- 9.97 mmHg); format: functional
Rattus norvegicus [22] = assay: Antihypertensive activity in spontaneously hypertensive rat assessed as diastolic arterial pressure at 80 mg/kg, po measured after 4 hrs by tail-cuff method (reference value: 136.12 +/- 5.3 mmHg); format: functional
Rattus norvegicus [23] = assay: Antihypertensive activity in spontaneously hypertensive rat assessed as systolic arterial pressure at 80 mg/kg, po measured after 2 hrs by tail-cuff method (reference value: 189.20 +/- 12.31 mmHg); format: functional
Rattus norvegicus [24] = assay: Antihypertensive activity in spontaneously hypertensive rat assessed as diastolic arterial pressure at 80 mg/kg, po measured after 0 hrs by tail-cuff method (reference value: 149.50 +/- 5.4 mmHg); format: functional
Rattus norvegicus [25] = assay: Effect on heart rate in spontaneously hypertensive rat assessed as heart rate level at 80 mg/kg, po measured after 1 hr by tail-cuff method (reference value: 415.25 +/- 14.7 bpm); format: ADME, organism-based; settings: in vivo
Rattus norvegicus [26] = assay: Antihypertensive activity in spontaneously hypertensive rat assessed as mean arterial pressure at 80 mg/kg, po measured after 8 hrs by tail-cuff method (reference value: 153.55 +/- 11.43 mmHg); format: functional
Rattus norvegicus [27] = assay: Antihypertensive activity in spontaneously hypertensive rat assessed as reduction in mean arterial pressure at 80 mg/kg, po measured after 2 hrs by tail-cuff method; format: functional; parameters: scale not given: the % may be the effect or the level left
Rattus norvegicus [28] = assay: Effect on heart rate in spontaneously hypertensive rat assessed as heart rate level at 80 mg/kg, po measured after 0 hrs by tail-cuff method (reference value: 413.17 +/- 10.5 bpm); format: ADME, organism-based; settings: in vivo

## COc1cc2c(cc1OCC(O)CN1CCN(c3ccccc3OC)CC1)COC(C)C2=O (stereo not drawn)
Thoracic aorta [1]
  inhibition at 10 µM: 41.7%
[2]
  Kb: 2200 nM
Thoracic aorta [3]
  inhibition at 100 µM: 50.4%

## COc1cc2c(cc1OCC(O)CN1CCN(C(=O)C3CCCO3)CC1)COC(C)C2=O (stereo not drawn)
Thoracic aorta [1]
  inhibition at 10 µM: 33.9%
Thoracic aorta [3]
  inhibition at 100 µM: 40.1%

## COc1ccc2c(c1OCC(O)CN1CCN(c3ccccc3)CC1)COC(C)C2=O (stereo not drawn)
Thoracic aorta [1]
  inhibition at 10 µM: 37.8%
[2]
  Kb: 296 nM
Thoracic aorta [3]
  inhibition at 100 µM: 59.7%

## CCOc1ccccc1N1CCN(CC(O)COc2cc3c(cc2OC)COC(C)C3=O)CC1 (stereo not drawn)
Thoracic aorta [1]
  inhibition at 10 µM: 25.4%
[2]
  Kb: 485 nM
Thoracic aorta [3]
  inhibition at 100 µM: 55.3%

## COc1cc2c(cc1OCC(O)CN1CCN(c3ccccc3Cl)CC1)COC(C)C2=O (stereo not drawn)
Thoracic aorta [1]
  inhibition at 10 µM: 27%
Thoracic aorta [3]
  inhibition at 100 µM: 32.4%

## COc1cc2c(cc1OCC(O)CN1CCN(c3ccccc3)CC1)COC(C)C2=O (stereo not drawn)
Thoracic aorta [1]
  inhibition at 10 µM: 39.2%
[2]
  Kb: 621 nM
Thoracic aorta [3]
  inhibition at 100 µM: 48.1%

## COc1cc2c(cc1OCC(O)CN1CCN(c3ccccc3Cl)CC1)C(=O)C(C)OC2 (stereo not drawn)
Thoracic aorta [1]
  inhibition at 10 µM: 30.2%
Thoracic aorta [3]
  inhibition at 100 µM: 42.4%

## COc1ccccc1N1CCN(CC(O)COc2c(OC)ccc3c2COC(C)C3=O)CC1 (stereo not drawn)
Thoracic aorta [1]
  inhibition at 10 µM: 13.6%
Thoracic aorta [3]
  inhibition at 100 µM: 24.4%

## COc1cc2c(cc1OCC(O)CN1CCN(c3ccccc3OC)CC1)C(=O)C(C)OC2 (stereo not drawn)
Thoracic aorta [1]
  inhibition at 10 µM: 23.1%
Thoracic aorta [3]
  inhibition at 100 µM: 44.6%

## CCOc1ccccc1N1CCN(CC(O)COc2c(OC)ccc3c2COC(C)C3=O)CC1 (stereo not drawn)
Thoracic aorta [1]
  inhibition at 10 µM: 23.1%
Thoracic aorta [3]
  inhibition at 100 µM: 36.1%

## COc1cc2c(cc1OCC(O)CN1CCN(C(=O)c3ccco3)CC1)COC(C)C2=O (stereo not drawn)
Thoracic aorta [1]
  inhibition at 10 µM: 17.8%
Thoracic aorta [3]
  inhibition at 100 µM: 22.8%

## COc1cc2c(cc1OCC(O)CN1CCN(C(=O)c3ccco3)CC1)C(=O)C(C)OC2 (stereo not drawn)
Thoracic aorta [1]
  inhibition at 10 µM: 33.4%
[2]
  Kb: 1550 nM
Thoracic aorta [3]
  inhibition at 100 µM: 44.9%

## CCOc1ccccc1N1CCN(CC(O)COc2cc3c(cc2OC)C(=O)C(C)OC3)CC1 (stereo not drawn)
Thoracic aorta [1]
  inhibition at 10 µM: 11.6%
Thoracic aorta [3]
  inhibition at 100 µM: 23.3%

## COc1ccc2c(c1OCC(O)CN1CCN(C(=O)C3CCCO3)CC1)COC(C)C2=O (stereo not drawn)
Thoracic aorta [1]
  inhibition at 10 µM: 31.4%
[2]
  Kb: 340 nM
Thoracic aorta [3]
  inhibition at 100 µM: 45.1%

## COc1cc2c(cc1OCC(O)CN1CCN(c3ccccc3)CC1)C(=O)C(C)OC2 (stereo not drawn)
Thoracic aorta [1]
  inhibition at 10 µM: 28.6%
Thoracic aorta [3]
  inhibition at 100 µM: 46.4%

## COc1ccccc1N1CCN(CC(O)COc2cccc3ccccc23)CC1 (stereo not drawn) [NAFTOPIDIL]
Rattus norvegicus [4]
  Activity: 139.57 mmHg
Rattus norvegicus [5]
  Activity: 409.22 bpm
Rattus norvegicus [6]
  Activity: 153.65 mmHg
Rattus norvegicus [7]
  Activity: 411.19 bpm
Rattus norvegicus [8]
  Activity: 140.76 mmHg
Rattus norvegicus [9]
  Activity: 162.07 mmHg
Rattus norvegicus [10]
  Activity: 145.79 mmHg
Rattus norvegicus [11]
  Activity: 181.92 mmHg
Rattus norvegicus [12]
  Activity: 135.94 mmHg
Rattus norvegicus [13]
  Activity: 417.25 bpm
Rattus norvegicus [14]
  Activity: 170.5 mmHg
Rattus norvegicus [15]
  Activity: 140.19 mmHg
Rattus norvegicus [16]
  Activity: 158.22 mmHg
Rattus norvegicus [17]
  Activity: 161.36 mmHg
Rattus norvegicus [18]
  Activity: 406.12 bpm
Rattus norvegicus [19]
  Activity: 143.06 mmHg
Rattus norvegicus [20]
  Activity: 129.85 mmHg
Rattus norvegicus [21]
  Activity: 147.25 mmHg
Thoracic aorta [1]
  inhibition at 10 µM: 47.5%
Rattus norvegicus [22]
  Activity: 134.31 mmHg
[2]
  Kb: 143 nM
Thoracic aorta [3]
  inhibition at 100 µM: 65.2%
Rattus norvegicus [23]
  Activity: 148.13 mmHg
Rattus norvegicus [24]
  Activity: 152.14 mmHg
Rattus norvegicus [25]
  Activity: 412.14 bpm
Rattus norvegicus [26]
  Activity: 152.21 mmHg
Rattus norvegicus [27]
  Activity: 16.1%
Rattus norvegicus [28]
  Activity: 415.15 bpm

## COc1ccc2c(c1OCC(O)CN1CCN(C(=O)c3ccco3)CC1)COC(C)C2=O (stereo not drawn)
Thoracic aorta [1]
  inhibition at 10 µM: 20.8%
Thoracic aorta [3]
  inhibition at 100 µM: 31.9%

## COc1ccc2c(c1OCC(O)CN1CCN(c3ccccc3Cl)CC1)COC(C)C2=O (stereo not drawn)
Thoracic aorta [1]
  inhibition at 10 µM: 18.2%
Thoracic aorta [3]
  inhibition at 100 µM: 29.1%
